Test results published in patent US10933061B2 (Shepherd Therapeutics, Inc., priority 2017, dated 2021).
“And” between values parts separate entries of the source, which are not always exact repeats. Equal entries are not always repeated.

What was measured:
[1] = system: GIST-1 gastrointestinal stromal tumor cells; assay: Chou-Talalay combination assay, Cell Titer Glo; assay type: cell-based; conditions: combination with pyrvinium pamoate, 72 hour incubation
Procedure: (§1) Following a 72 hour incubation, cell viability was determined using Cell Titer Glo.

[2] = system: TFK-1 cholangiocarcinoma cells; assay: Chou-Talalay combination assay, Cell Titer Glo; assay type: cell-based; conditions: 72 hour incubation; for CI range: combination with pyrvinium pamoate
Procedure: as §1

[3] = system: Rh30 rhabdomyosarcoma cells; assay: Chou-Talalay combination assay, Cell Titer Glo; assay type: cell-based; conditions: combination with pyrvinium pamoate, 72 hour incubation
Procedure: as §1

[4] = system: Hs766t pancreatic carcinoma cells; assay: Chou-Talalay combination assay, Cell Titer Glo; assay type: cell-based; conditions: 72 hour incubation
Procedure: as §1

[5] = system: SW-1271 small cell lung carcinoma cells; assay: Chou-Talalay combination assay, Cell Titer Glo; assay type: cell-based; conditions: combination with pyrvinium pamoate, 72 hour incubation
Procedure: as §1

[6] = system: COV362 ovarian carcinoma cells; assay: Chou-Talalay combination assay, Cell Titer Glo; assay type: cell-based; conditions: combination with pyrvinium pamoate, 72 hour incubation
Procedure: as §1

[7] = system: IMR-32 neuroblastoma cells; assay: Chou-Talalay combination assay, Cell Titer Glo; assay type: cell-based; conditions: combination with pyrvinium pamoate, 72 hour incubation
Procedure: as §1

[8] = system: DMS-114 small cell lung carcinoma cells; assay: Chou-Talalay combination assay, Cell Titer Glo; assay type: cell-based; conditions: combination with pyrvinium pamoate, 72 hour incubation
Procedure: as §1

[9] = system: BxPC-3 pancreatic carcinoma cells; assay: Chou-Talalay combination assay, Cell Titer Glo; conditions: combination with pyrvinium pamoate, 72 hour incubation
Procedure: as §1

[10] = system: CHP-212 neuroblastoma cells; assay: Chou-Talalay combination assay, Cell Titer Glo; assay type: cell-based; conditions: 72 hour incubation; for CI range: combination with pyrvinium pamoate
Procedure: as §1

[11] = system: CCC-5 cholangiocarcinoma cells; assay: Chou-Talalay combination assay, Cell Titer Glo; assay type: cell-based; conditions: 72 hour incubation; for CI range: combination with pyrvinium pamoate
Procedure: as §1

[12] = system: SK-LMS-1 leiomyosarcoma cells; assay: Chou-Talalay combination assay, Cell Titer Glo; assay type: cell-based; conditions: combination with pyrvinium pamoate, 72 hour incubation
Procedure: as §1

[13] = system: PC12 pheochromocytoma/paraganglioma cells; conditions: combination with pyrvinium pamoate, 72 hour incubation
Procedure: as §1

[14] = system: Rh41 rhabdomyosarcoma cells; assay: Chou-Talalay combination assay, Cell Titer Glo; assay type: cell-based; conditions: combination with pyrvinium pamoate, 72 hour incubation
Procedure: as §1

LO-68 mesothelioma cells = assay: Chou-Talalay combination assay, Cell Titer Glo; assay type: cell-based; conditions: combination with pyrvinium pamoate, 72 hour incubation
Procedure: as §1

[15] = system: SNU-16 gastric carcinoma cells; assay: Chou-Talalay combination assay, Cell Titer Glo; assay type: cell-based; conditions: combination with pyrvinium pamoate, 72 hour incubation
Procedure: as §1

[16] = system: carcinoid tumor cell line STC-1; assay: Chou-Talalay combination assay, Cell Titer Glo; assay type: cell-based; conditions: combination with pyrvinium pamoate, 72 hour incubation
Procedure: as §1

[17] = system: TOV-112D ovarian carcinoma cells; assay: Chou-Talalay combination assay, Cell Titer Glo; assay type: cell-based; conditions: 72 hour incubation
Procedure: as §1

[18] = system: NCI-H295R adrenocortical carcinoma cells; assay: Chou-Talalay combination assay, Cell Titer Glo; assay type: cell-based; conditions: combination with pyrvinium pamoate, 72 hour incubation
Procedure: as §1

[19] = system: TC-32 Ewing's sarcoma cells; assay: Chou-Talalay combination assay, Cell Titer Glo; assay type: cell-based; conditions: combination with pyrvinium pamoate, 72 hour incubation
Procedure: as §1

[20] = system: UM-Chor1 chordoma cell line; assay: Chou-Talalay combination assay, Cell Titer Glo; assay type: cell-based; conditions: combination with pyrvinium pamoate, 72 hour incubation
Procedure: as §1

[21] = system: SK-N-AS neuroblastoma cells; assay: Chou-Talalay combination assay, Cell Titer Glo; assay type: cell-based; conditions: SK-N-AS; combination with pyrvinium pamoate; 72 hour incubation
Procedure: as §1

[22] = system: SW13 adrenocortical carcinoma cells; assay: Chou-Talalay combination assay, Cell Titer Glo; assay type: cell-based; conditions: 72 hour incubation
Procedure: as §1

[23] = system: TC-71 Ewing's sarcoma cells; assay: Chou-Talalay combination assay, Cell Titer Glo; assay type: cell-based; conditions: 72 hour incubation
Procedure: as §1

JU-77 mesothelioma cells = assay: Chou-Talalay combination assay, Cell Titer Glo; assay type: cell-based; conditions: combination with pyrvinium pamoate, 72 hour incubation
Procedure: as §1

[24] = system: SK-UT-1 leiomyosarcoma cells; assay: Chou-Talalay combination assay, Cell Titer Glo; assay type: cell-based; conditions: combination with pyrvinium pamoate, 72 hour incubation
Procedure: as §1

[25] = system: Kato-III gastric carcinoma cells; assay: Chou-Talalay combination assay, Cell Titer Glo; assay type: cell-based; conditions: Kato-III; combination with pyrvinium pamoate; 72 hour incubation
Procedure: as §1

[26] = system: SKOV-3 ovarian carcinoma cells; assay: Chou-Talalay combination assay, Cell Titer Glo; assay type: cell-based; conditions: combination with pyrvinium pamoate, 72 hour incubation
Procedure: as §1

[27] = system: SK-UT-1B leiomyosarcoma cells; assay: Chou-Talalay combination assay, Cell Titer Glo; assay type: cell-based; conditions: combination with pyrvinium pamoate, 72 hour incubation
Procedure: as §1

[28] = combination with pyrvinium pamoate

Row | SMILES | CI range [1] | CI range [2] | CI range [3] | CI range [6] | CI range [9] | CI range [10] | CI range [11] | CI range [12] | CI range [13] | CI range [14] | CI range [16] | CI range [18] | CI range [19] | CI range [20] | further results
1 | CCN1CCN(Cc2ccc(Nc3ncc(F)c(-c4cc(F)c5nc(C)n(C(C)C)c5c4)n3)nc2)CC1 [Abemaciclib] | 0.249-0.699 | 0.522-0.884 | 0.148-0.886 | 0.144-0.714 | 0.417-0.895 | 0.076-0.772 | 0.628-0.841 | 0.350-0.808 |  |  |  |  |  |  | CI range [4, 28]: 0.587-0.863 and 0.304-0.879; CI range [5]: 0.183-0.889; CI range [7]: (0.485-0.860); CI range [8]: 0.327-0.876
2 | CN(C)/N=N/c1[nH]cnc1C(N)=O [Dacarbazine] |  |  |  |  |  |  |  |  | 0.550-0.818 |  |  |  |  |  | 
3 | COc1cccc2c1C(=O)c1c(O)c3c(c(O)c1C2=O)C[C@@](O)(C(=O)CO)C[C@@H]3O[C@H]1C[C@H](N)[C@H](O)[C@H](C)O1 [Doxorubicin] | 0.169-0.883 |  |  | 0.021-0.895 |  | 0.696-0.812 | 0.341-0.805 |  |  | 0.145-0.834 | 0.807-0.890 | 0.185-0.872 | 0.424-0.872 | 0.423-0.875 | CI range (LO-68 mesothelioma cells): 0.008-0.642; CI range [15]: 0.614-0.878; Synergy with pyrvinium pamoate [2]: No; Synergy with pyrvinium pamoate [17]: No; CI range [21]: Yes- (0.082-0.879); Synergy with pyrvinium pamoate [22]: No; Synergy with pyrvinium pamoate [23]: No; CI range (JU-77 mesothelioma cells): 0.444-0.889; CI range [24]: (0.556-0.858); CI range [25]: Yes- (0.021-0.584); CI range [26]: (0.017-0.870); CI range [27]: 0.352-0.739
4 | CC[C@]1(O)C[C@H]2CN(CCc3c([nH]c4ccccc34)[C@@](C(=O)OC)(c3cc4c(cc3OC)N(C=O)[C@H]3[C@@](O)(C(=O)OC)[C@H](OC(C)=O)[C@]5(CC)C=CCN6CC[C@]43[C@@H]65)C2)C1 [Vincristine] | 0.231-0.756 and 0.150-0.772 | 0.453-0.827 | 0.477-0.883 | 0.432-0.825 | 0.347-0.869 |  |  | 0.163-0.831 | 0.614-0.841 | 0.284-0.876 | 0.036-0.854 | 0.752-0.827 | 0.659-0.869 | 0.249-0.560 | Synergy with pyrvinium pamoate [4]: No; CI range [17, 28]: 0.477-0.858; CI range [22, 28]: 0.499-0.875; CI range [23, 28]: 0.251-0.898; Synergy with pyrvinium pamoate [10]: No; Synergy with pyrvinium pamoate [11]: No
